The results in this text go back to ChEMBL document CHEMBL1155596, “8-O-Methylsclerotiorinamine, antagonist of the Grb2-SH2 domain, isolated from Penicillium multicolor” (J Nat Prod, 2000).

Data set [1] can be described thus: Growth inhibition of mouse B104-1-1 cells after 48 hrs by WST1 assay. Type of data set: cell-based.
For data set [2], the target named is Growth factor receptor-bound protein 2 (Homo sapiens, UniProt P62993). Put plainly: Inhibition of GST tagged Grb2 SH2 domain binding to Shc-derived [3H]phosphopeptide.
Sequence of Growth factor receptor-bound protein 2 (P62993 whole entry, the tested form may be a part): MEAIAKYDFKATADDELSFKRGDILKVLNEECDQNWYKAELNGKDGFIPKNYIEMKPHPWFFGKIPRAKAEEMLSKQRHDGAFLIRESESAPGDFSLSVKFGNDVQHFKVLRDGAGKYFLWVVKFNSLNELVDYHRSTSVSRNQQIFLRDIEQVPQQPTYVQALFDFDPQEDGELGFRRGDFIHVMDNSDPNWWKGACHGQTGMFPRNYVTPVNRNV
The target in data set [3] is Growth factor receptor-bound protein 2 (Mus musculus) (UniProt Q60631). Put plainly: Inhibition of Shc-Grb2 interaction in mouse B104-1-1 cells by immunoblotting. Type of data set: cell-based. Also noted: scale not given: the % may be the effect or the level left.
Sequence of Growth factor receptor-bound protein 2 (Mus musculus) (Q60631 whole entry): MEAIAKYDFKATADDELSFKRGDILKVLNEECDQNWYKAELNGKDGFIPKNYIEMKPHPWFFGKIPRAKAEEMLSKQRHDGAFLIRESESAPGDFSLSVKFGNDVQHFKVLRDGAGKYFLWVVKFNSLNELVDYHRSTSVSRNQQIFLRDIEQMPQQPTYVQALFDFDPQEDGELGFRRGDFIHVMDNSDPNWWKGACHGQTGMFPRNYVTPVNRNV

`CCC(C)/C=C(C)/C=C/c1cc2c(cn1)=C(OC)[C@@](C)(OC(C)=O)C(=O)C=2Cl` (stereo partly drawn) showed a 50% growth inhibitory concentration (GI50) at 48 h in data set [1] of 50 µM. The molecule further displayed an IC50 in data set [2] of 5.3 µM. This molecule came in with an Activity in data set [3] of 50%.
